The text below walks through data of paper PMC9189904, “Functional Properties of Two Distinct PTH1R Mutants Associated With Either Skeletal Defects or Pseudohypoparathyroidism” (JBMR Plus, 2022).

Substitutions are numbered along the chain they refer to. Non-standard residues stand in square brackets, D forms with d. Residues, ends and D or L forms follow the SMILES beside them. No end group written: not given here. hArg = N=C(N)NCCCC[C@H](N)C(=O)O; Ac5c = NC1(C(=O)O)CCCC1; Aib = CC(C)(N)C(=O)O

The target of one test is T1, PTH1R‐P132L (Homo sapiens, UniProt Q03431, P132L).
T1 construct: expressed in transfected cells; plasmid TG-395 in pCDNA1
T1 sequence (Q03431 27-593 E90Y/S91D/E92V/E93P/K95Y/E96A/P132L): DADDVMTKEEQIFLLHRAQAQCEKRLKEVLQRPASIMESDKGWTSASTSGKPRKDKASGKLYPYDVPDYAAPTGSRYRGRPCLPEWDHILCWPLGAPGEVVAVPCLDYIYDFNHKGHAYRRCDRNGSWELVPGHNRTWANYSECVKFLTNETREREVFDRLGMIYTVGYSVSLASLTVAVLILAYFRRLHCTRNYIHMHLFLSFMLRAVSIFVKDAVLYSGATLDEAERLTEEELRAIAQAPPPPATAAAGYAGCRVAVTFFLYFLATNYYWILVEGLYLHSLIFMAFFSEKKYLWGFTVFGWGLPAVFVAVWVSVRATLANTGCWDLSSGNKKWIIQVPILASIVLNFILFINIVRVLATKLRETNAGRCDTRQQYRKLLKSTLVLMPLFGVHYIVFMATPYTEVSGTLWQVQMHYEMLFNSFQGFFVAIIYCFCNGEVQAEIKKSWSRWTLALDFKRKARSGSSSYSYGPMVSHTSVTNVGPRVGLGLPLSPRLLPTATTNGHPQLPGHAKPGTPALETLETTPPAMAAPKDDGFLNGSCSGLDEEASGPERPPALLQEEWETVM
Put plainly: GloSensor cAMP signaling assay in transiently transfected GS-22a cells. The conditions noted are these: Table 1, percent of maximum response of the same ligand on PTH1R-WT, mean ± SEM of five experiments. The test is classed as cell-based. How it is done:
(§1) GS‐22a cells are derived from HEK293 cells (American Type Culture Collection [ATCC], Manassas, VA, USA; CRL‐1573) by stably transfection with the luciferase‐based GloSensor (Promega, San Luis Obispo, CA, USA) cAMP reporter plasmid pGloSensor‐22F. The cells were cultured in Dulbecco's modified Eagle medium (DMEM) supplemented with fetal bovine serum (10%) in a humidified incubator containing 5% CO2 and set at 37°C, and seeded into 96‐well or six‐well plates for transient DNA transfection and functional assays. Cells were transfected when the monolayers were 85%–95% of confluency using Lipofectamine™ 2000 (Thermo Fisher Scientific, Waltham, MA, USA) and 100 ng of DNA per well for 96‐well plates and 1000 ng of DNA per well for six‐well plates. Assays were performed 48 hours after transfection, and media was changed 2–4 hours prior to assay.
(§2) PTH1R‐mediated cAMP signaling was assessed via the GloSensor cAMP reporter in GS‐22a cells in white 96‐well plates. Assays were performed at ambient room temperature. For each plate, the media was replaced with CO2‐independent media (Thermo Fisher Scientific; Cat. No. 18045088) containing luciferin (0.5mM) and the plate was placed into a PerkinElmer Envision plate reader and cAMP‐dependent luminescence, as counts per second (cps), was measured at 2‐minute intervals for 15 minutes, during which time luciferin uptake occurred and luminescence reached a near steady‐state baseline. The plate was then removed from the plate reader, media (vehicle) or test ligands were added at varying concentrations, and luminescence was again measured at 2‐minute intervals for an additional 30–60 minutes.
(§3) Data were processed using Microsoft Excel and GraphPad Prism 8.0 software and analyzed statistically using a Student's t test (two‐tailed and unequal variances). Dose–response curves were fit to the data by using a three‐parameter sigmoidal dose–response equation with nonlinear regression, which yielded the reported response parameters of potency (EC50), efficacy (Emax), and […].

A further test concerns the target T2, PTH1R‐R186H (Homo sapiens, UniProt Q03431, R186H).
T2 construct: expressed in transfected cells; plasmid TG-907 made by VectorBuilder
T2 sequence (Q03431 27-593 E90Y/S91D/E92V/E93P/K95Y/E96A/R186H): T1 sequence (Q03431 27-593 E90Y/S91D/E92V/E93P/K95Y/E96A/P132L) with L106P, R160H
Described as above. The format is cell-based. The following applies: for pEC50: Suppl. Table 2, full-length ligands, mean ± SEM of three experiments; for pEC50 / EC50: GS-22a cells; for Emax, %: Suppl. Table 2, percent of maximum response of the same ligand on PTH1R-WT, three experiments; for EC50: Table 2, N-terminal analogs, means of four or three (M-PTH(1-11)) experiments, each in duplicate. How it is done: as §1, §2, §3

A further test addresses T3, PTH1R‐V204E (Homo sapiens, UniProt Q03431, V204E).
T3 construct: expressed in transfected cells; plasmid TG-928 made by VectorBuilder
T3 sequence (Q03431 27-593 E90Y/S91D/E92V/E93P/K95Y/E96A/V204E): T1 sequence (Q03431 27-593 E90Y/S91D/E92V/E93P/K95Y/E96A/P132L) with L106P, V178E
The test is described as above. The format is cell-based. The following applies: for pEC50: Suppl. Table 2, full-length ligands, mean ± SEM of three experiments; for pEC50 / EC50: GS-22a cells; for Emax, %: Suppl. Table 2, percent of maximum response of the same ligand on PTH1R-WT, three experiments; for EC50: Table 2, N-terminal analogs, means of four or three (M-PTH(1-11)) experiments, each in duplicate. How it is done: as §1, §2, §3

Another test deals with T4, PTH1R‐WT (Homo sapiens, UniProt Q03431).
T4 construct: expressed in transfected cells; plasmid TG-906 made by VectorBuilder
T4 sequence (Q03431 27-593 E90Y/S91D/E92V/E93P/K95Y/E96A): T1 sequence (Q03431 27-593 E90Y/S91D/E92V/E93P/K95Y/E96A/P132L) with L106P
Described as above. The format is cell-based. The following applies: for pEC50: Suppl. Table 2, full-length ligands, mean ± SEM of three experiments, SEM; for pEC50 / EC50: GS-22a cells; for Emax, %: Suppl. Table 2, percent of maximum response of the same ligand on PTH1R-WT, three experiments; for EC50: Table 2, N-terminal analogs, means of four or three (M-PTH(1-11)) experiments, each in duplicate; for Emax: Table 2, percent of maximum response of the same ligand on PTHR1-WT, four or three (M-PTH(1-11)) experiments. How it is done:
as §1, §2, §3

The target in test [1] is HA‐tagged human PTH1R‐V204E (human) (UniProt Q03431).
Where [2] appears, read: Table 1, percent of maximum response of the same ligand on PTH1R-WT, mean ± SEM of five experiments, SEM.
Setting [3] is: Table 2, percent of maximum response of the same ligand on PTHR1-WT, four or three (M-PTH(1-11)) experiments.

By Emax is commonly meant the maximal effect, on the per cent scale that the assay sets. Consider `CC[C@H](C)[C@H](NC(=O)[C@H](CCC(=O)O)NC(=O)[C@H](CO)NC(=O)[C@@H](NC(=O)[C@@H](N)CO)C(C)C)C(=O)N[C@@H](CCC(N)=O)C(=O)N[C@@H](CC(C)C)C(=O)N[C@@H](CCSC)C(=O)N[C@@H](Cc1c[nH]cn1)C(=O)N[C@@H](CC(N)=O)C(=O)N[C@@H](CC(C)C)C(=O)NCC(=O)N[C@@H](CCCCN)C(=O)N[C@@H](Cc1c[nH]cn1)C(=O)N[C@@H](CC(C)C)C(=O)N[C@@H](CC(N)=O)C(=O)N[C@@H](CO)C(=O)N[C@@H](CCSC)C(=O)N[C@@H](CCC(=O)O)C(=O)N[C@@H](CCCNC(=N)N)C(=O)N[C@H](C(=O)N[C@@H](CCC(=O)O)C(=O)N[C@@H](Cc1c[nH]c2ccccc12)C(=O)N[C@@H](CC(C)C)C(=O)N[C@@H](CCCNC(=N)N)C(=O)N[C@@H](CCCCN)C(=O)N[C@@H](CCCCN)C(=O)N[C@@H](CC(C)C)C(=O)N[C@@H](CCC(N)=O)C(=O)N[C@@H](CC(=O)O)C(=O)N[C@H](C(=O)N[C@@H](Cc1c[nH]cn1)C(=O)N[C@@H](CC(N)=O)C(=O)N[C@@H](Cc1ccccc1)C(N)=O)C(C)C)C(C)C` [PTH(1‐34), human(h)PTH(1‐34)], for which the Emax on PTH1R‐P132L is about 45%; on PTH1R‐R186H (setting [2]), 118 ± 4%; on PTH1R‐V204E (setting [2]) it was 81 ± 4%. In addition, the “Emax, %” value at PTH1R‐P132L (SEM) came to 44 ± 4%.

As a reminder, the pEC50 is the EC50 on a negative log10 scale, so that one unit is a factor of ten. The low end stands for a large EC50, the high end for a small EC50. Take hPTH(1‐84) [PTH(1-84)]: the pEC50 was 9.05 with PTH1R‐WT, 9.25 with PTH1R‐R186H (SEM) and 9.19 in the test with PTH1R‐V204E (SEM). For the same compound, the results for the “Emax, %” value with PTH1R‐WT, in the test with PTH1R‐R186H and with PTH1R‐V204E were 100 ± 0%, 96 ± 4% and 115 ± 11%, respectively.

As to human(h)PTH(1‐34) (peptide), the cAMP‐dependent GloSensor luminescence in transfected GS‐22a cells, potency: pEC50 with EC50 (nM) in parentheses in test [1] is 0.33 nM.

As a reminder, the EC50 is the concentration needed to bring the measured effect to its halfway point. Low values mean higher potency in that assay, high ones lower potency in that assay. Consider “SVSEIQLMHNLGKHLNSMERVEWLRKKL-NH2 [PTH(1‐28), hPTH(1‐28)]”, for which the EC50 at PTH1R‐WT was 0.776 nM; at PTH1R‐R186H it was 0.575 nM; on PTH1R‐V204E, 0.447 nM. The Emax at PTH1R‐WT turned out to be 100%; at PTH1R‐R186H (setting [3]) it was 98 ± 10%; at PTH1R‐V204E (setting [3]), 78 ± 10%.

In the case of `CC[C@H](C)[C@H](NC(=O)[C@H](CCC(=O)O)NC(=O)C(C)(C)NC(=O)[C@@H](NC(=O)C1(N)CCCC1)C(C)C)C(=O)N[C@@H](CCC(N)=O)C(=O)N[C@@H](CC(C)C)C(=O)N[C@@H](CCSC)C(=O)N[C@@H](Cc1c[nH]cn1)C(=O)N[C@@H](CCC(N)=O)C(=O)N[C@@H](CCCCNC(=N)N)C(N)=O` [M‐PTH(1‐11), modified (M)‐PTH(1‐11)] (H-[Ac5c]V[Aib]EIQLMHQ[hArg]-NH2), the EC50 at PTH1R‐WT is 0.191 nM; on PTH1R‐R186H it was 2.82 nM; at PTH1R‐V204E it was 0.759 nM. For the same compound, the Emax was 100% on PTH1R‐WT, 126 ± 14% at PTH1R‐R186H (setting [3]) and 80 ± 11% at PTH1R‐V204E (setting [3]).

On to hPTHrP(1‐141) [PTHrP(1-141)], for which the pEC50 with PTH1R‐WT came out at 8.65; with PTH1R‐R186H (SEM), 8.90; in the test with PTH1R‐V204E (SEM), 8.55. In addition, the “Emax, %” value with PTH1R‐WT amounted to 100 ± 0%; with PTH1R‐R186H, 108 ± 3%; with PTH1R‐V204E it was 133 ± 12%.
